Data taken from US5225411A, “Disubstituted polymethyleneimines” (priority 1990, dated 1993).

Key:
line P 388/ADR 10 = experiment: Flow cytometry, increase in fluorescence of ADR on the line P 388/ADR 10; assay type: cell-based, murine; settings: ADR 50 μM, 5 h
Method: (§1) By measuring that fluorescence it is possible to obtain a relative measurement of the intracellular concentration of ADR.
(§2) […] After 5 hours' incubation, the intracellular uptake of adriamycin was evaluated by FCM.
(§3) The analysis of each of the samples was carried out on a total of 10,000 cells at a speed of 1000 cells/sec.
(§4) The results were presented in the form of linear histograms of the intracellular ADR fluorescence.
(§5) Expression of the Results
(§6) For each of the histograms, the channel mean fluorescence was determined by the apparatus information system. For all experiments:
(§7) A negative control (cells without ADR) fixed the autofluorescence threshold.
(§8) A positive control (cells with ADR) determined the MEAN value=MN1.
(§9) The "test" tubes (cells with ADR and with compound) were used to determine, for each of the compounds and at each of the concentrations, the MEAN values=MN2.
(§10) The results are expressed in the form of variations from the mean fluorescence obtained for each of the "test" tubes (MN2) in relation to the mean fluorescence obtained with the […] (MNl) : VAR-MEAN=MN2 -MN1. The parameter expressed is thus the increase in the fluorescence of adriamycin in the presence of the tested compounds.

[1] = tested on: Chinese Hamster Pulmonary Line DC-3F/AD; experiment: Increase in the cytotoxicity of actinomycin D on the Chinese hamster pulmonary line DC-3F/AD; assay type: cell-based; settings: 4 days;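 note: DC-3F/AD is an extremely resistant cell line whose resistance factor exceeds 10,000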
Source text: The cytotoxic agent used was actinomycin D.
Line DC-3F/AD is an extremely resistant line. Its resistance factor is higher than 10,000.

[2] = tested on: murine leukaemia P 388/ADR 10; experiment: Evaluation of the increase in cytotoxicity of adriamycin on the line P 388/ADR-10 in vitro (reversion factor); assay type: cell-based; settings: adriamycin, P 388/ADR-10, 48 h, TOX = toxic
Method: In this study, the cytotoxicity of adriamycin was measured in the absence and in the presence of the reversing compound.
The compounds tested for their capacity to reverse MDR are added at the same time as the cytotoxic agent. The cells are then incubated for 48 hours.

line DC-3F/AD = experiment: Flow cytometry, increase in fluorescence of ADR on the line DC-3F/AD; assay type: cell-based, Chinese Hamster; settings: ADR 50 μM, 5 h
Method: as §1, §2, §3, §4, §5, §6, §7, §8, §9, §10

SMILES | Increase in fluorescence of ADR (VAR-MEAN = MN2 - MN1) (line P 388/ADR 10; compound 2 μM) | Increase in fluorescence of ADR (VAR-MEAN = MN2 - MN1) (line P 388/ADR 10; compound 5 μM) | Increase in fluorescence of ADR (VAR-MEAN = MN2 - MN1) (line P 388/ADR 10; compound 10 μM) | Increase in fluorescence of ADR (VAR-MEAN = MN2 - MN1) (line P 388/ADR 10; compound 20 μM) | Reversion Factor (RF) ([1]; compound 5 μM) | Reversion Factor (RF) ([1]; compound 10 μM) | Reversion Factor (RF) ([1]; compound 20 μM) | Reversion Factor (RF) ([2]; compound 2.5 μM) | Reversion Factor (RF) ([2]; compound 5 μM) | Reversion Factor (RF) ([2]; compound 10 μM) | Increase in fluorescence of ADR (VAR-MEAN = MN2 - MN1) (line DC-3F/AD; compound 2 μM) | Increase in fluorescence of ADR (VAR-MEAN = MN2 - MN1) (line DC-3F/AD; compound 5 μM) | Increase in fluorescence of ADR (VAR-MEAN = MN2 - MN1) (line DC-3F/AD; compound 10 μM) | Increase in fluorescence of ADR (VAR-MEAN = MN2 - MN1) (line DC-3F/AD; compound 20 μM) | Reversion Factor (RF) ([1]; compound 2.5 μM)
CN(C)CCCN1c2ccccc2Sc2ccc(Cl)cc21 [CHLOROPROMAZINE] | 3.30 | 5.15 | 4.60 | 6.20 | < 13 | < 12 | < 13 |  |  |  |  |  |  |  | 
COc1ccc([C@@H]2Sc3ccccc3N(CCN(C)C)C(=O)[C@@H]2OC(C)=O)cc1 [DILTIAZEM] | 3.10 | 6.65 | 13.45 | 23.15 | < 11 | < 10 | < 11 |  |  |  |  |  |  |  | 
OCCN(CCO)c1nc(N2CCCCC2)c2nc(N(CCO)CCO)nc(N3CCCCC3)c2n1 [DIPYRIDAMOLE] | 2.35 | 7.55 | 21.75 | 40.00 | < 12 | < 11 | < 12 |  |  |  |  |  |  |  | 
C=CCNc1nc(NCC=C)nc(N2CCC(SCCC(c3ccccc3)c3ccccc3)CC2)n1 [Example 2, 1-[4,6-bis(allylamino)-2-s-triazinyl]-4-(3,3-diphenylpropylthio)piperidine] |  |  |  |  | 17 | 171 |  | 15.4 | 65.1 | 86.4 | 0.2 | 10.4 | 25.1 | 35.0 | 
Fc1ccc(C(c2ccc(F)cc2)N2CCN(C/C=C/c3ccccc3)CC2)cc1 [FLUNARIZINE] | 7.35 | 10.10 | 19.90 | 41.00 | < 13 | 16 | TOX |  |  | 25 |  |  |  |  | 
COC(=O)C1=C(C)NC(C)=C(C(=O)OC)C1c1ccccc1[N+](=O)[O-] [NIFEDIPINE] | 0.00 | 0.80 | 5.95 | 3.40 |  |  |  |  |  |  |  |  |  |  | 
c1ccc2c(c1)Nc1ccccc1S2 [PHENOTHIAZINE] | 0.00 | 0.00 | 0.00 | 0.00 | < 12 | < 12 | < 12 | 9.4 | 23.1 |  |  |  |  |  | 
O=c1[nH]c2ccccc2n1C1CCN(CCCC(c2ccc(F)cc2)c2ccc(F)cc2)CC1 [PIMOZIDE] | 25.60 | 49.42 | 73.13 | 73.64 | 28 | 78 | TOX |  |  |  | 5.85 | 8.85 | 15.65 | 21.60 | < 10
CC(=O)[C@H]1CC[C@H]2[C@@H]3CCC4=CC(=O)CC[C@]4(C)[C@H]3CC[C@]12C [PROGESTERONE] | 1.85 | 1.00 | 6.85 | 11.80 | < 10 | < 10 | 13 |  | 1.7 | 2.5 |  |  |  |  | 
CCN(CC)CCCC(C)Nc1c2ccc(Cl)cc2nc2ccc(OC)cc12 (stereo not drawn) [QUINACRINE] | 11.83 | 15.73 | 27.73 | 52.77 | < 13 | < 12 | TOX |  |  |  | 2.00 | 10.5 | 19.1 | 25.8 | 
C=C[C@H]1C[N@@]2CC[C@H]1C[C@@H]2[C@@H](O)c1ccnc2ccc(OC)cc12 [QUINIDINE] | 6.65 | 12.80 | 22.00 | 29.90 | < 12 | < 12 | < 12 |  | 6 | 17.4 |  |  |  |  | 
C=C[C@H]1C[N@@]2CC[C@H]1C[C@H]2[C@H](O)c1ccnc2ccc(OC)cc12 [QUININE] | 4.85 | 5.40 | 12.00 | 18.90 | < 10 | < 10 | < 11 |  |  | 14.5 |  |  |  |  | 
CN1CCN(CCCN2c3ccccc3Sc3ccc(C(F)(F)F)cc32)CC1 [TRIFLUOPERAZINE] | 11.45 | 14.75 | 34.55 | 51.05 | < 12 | 38 | TOX |  |  |  | 0.00 | 0.00 | 4.10 | 13.40 | 
COC(=O)[C@@H]1[C@H]2C[C@H]3c4[nH]c5ccccc5c4CCN3C[C@@H]2CC[C@@H]1O [YOHIMBINE] | 2.30 | 0.05 | 4.70 | 3.45 | < 12 | < 12 | < 12 |  |  |  |  |  |  |  | 
COc1ccc(CCN(C)CCCC(C#N)(c2ccc(OC)c(OC)c2)C(C)C)cc1OC (stereo not drawn) [reference compound] | 9.89 | 21.90 | 39.62 | 56.50 |  |  |  |  |  |  | 2.00 | 2.60 | 7.55 | 11.45 | 
